Data taken from US20220380415A1, “Antibiotic Peptides, Compositions and Uses Thereof” (priority 2019, published 2022).
≈ marks a conversion by molar mass, not a printed value. Entries after “also recorded” stand apart in the source; their conditions may differ. Read-outs that look alike come from different tables or passages of the source. Positions of bridges follow the written chain, without caps; N, C: chain ends. Residues, ends and D or L forms follow the SMILES beside them.

Assays:
[1] = thermostability analysis via LC-MS; details: heated to 95° C.; 2 h for the LC-MS sample
[2] = system: Burkholderia pseudomallei Bp82
[3] = system: B. multivorans ATCC 17616
B. cepacia ATCC 25416 [4] = system: B. cepacia ATCC 25416
B. mallei Old ISU [5] = system: B. mallei Old ISU
B. mallei NVSL 86-567-2 [6] = system: B. mallei NVSL 86-567-2
[7] = system: B. multivorans ATCC 17616; remark: listed apart in the source
[8] = system: Burkholderia gladioli ATCC 10248
[9] = system: Enterohemorrhagic Escherichia coli O157:H7 TUV-93-0
[10] = system: Burkholderia pseudomallei 576mn
[11] = system: Pseudomonas aeruginosa PAO1
[12] = system: Salmonella enterica serovar newport
[13] = system: Burkholderia thailandensis E264
Burkholderia multivorans = type: cell-based
E. coli RNA polymerase = E. coli RNA polymerase (Escherichia coli, UniProt P0A8T7+P0A8V2); experiment: in vitro abortive transcription initiation assay (RNAP inhibition); type: biochemical
Chain of E. coli RNA polymerase (P0A8T7 whole entry): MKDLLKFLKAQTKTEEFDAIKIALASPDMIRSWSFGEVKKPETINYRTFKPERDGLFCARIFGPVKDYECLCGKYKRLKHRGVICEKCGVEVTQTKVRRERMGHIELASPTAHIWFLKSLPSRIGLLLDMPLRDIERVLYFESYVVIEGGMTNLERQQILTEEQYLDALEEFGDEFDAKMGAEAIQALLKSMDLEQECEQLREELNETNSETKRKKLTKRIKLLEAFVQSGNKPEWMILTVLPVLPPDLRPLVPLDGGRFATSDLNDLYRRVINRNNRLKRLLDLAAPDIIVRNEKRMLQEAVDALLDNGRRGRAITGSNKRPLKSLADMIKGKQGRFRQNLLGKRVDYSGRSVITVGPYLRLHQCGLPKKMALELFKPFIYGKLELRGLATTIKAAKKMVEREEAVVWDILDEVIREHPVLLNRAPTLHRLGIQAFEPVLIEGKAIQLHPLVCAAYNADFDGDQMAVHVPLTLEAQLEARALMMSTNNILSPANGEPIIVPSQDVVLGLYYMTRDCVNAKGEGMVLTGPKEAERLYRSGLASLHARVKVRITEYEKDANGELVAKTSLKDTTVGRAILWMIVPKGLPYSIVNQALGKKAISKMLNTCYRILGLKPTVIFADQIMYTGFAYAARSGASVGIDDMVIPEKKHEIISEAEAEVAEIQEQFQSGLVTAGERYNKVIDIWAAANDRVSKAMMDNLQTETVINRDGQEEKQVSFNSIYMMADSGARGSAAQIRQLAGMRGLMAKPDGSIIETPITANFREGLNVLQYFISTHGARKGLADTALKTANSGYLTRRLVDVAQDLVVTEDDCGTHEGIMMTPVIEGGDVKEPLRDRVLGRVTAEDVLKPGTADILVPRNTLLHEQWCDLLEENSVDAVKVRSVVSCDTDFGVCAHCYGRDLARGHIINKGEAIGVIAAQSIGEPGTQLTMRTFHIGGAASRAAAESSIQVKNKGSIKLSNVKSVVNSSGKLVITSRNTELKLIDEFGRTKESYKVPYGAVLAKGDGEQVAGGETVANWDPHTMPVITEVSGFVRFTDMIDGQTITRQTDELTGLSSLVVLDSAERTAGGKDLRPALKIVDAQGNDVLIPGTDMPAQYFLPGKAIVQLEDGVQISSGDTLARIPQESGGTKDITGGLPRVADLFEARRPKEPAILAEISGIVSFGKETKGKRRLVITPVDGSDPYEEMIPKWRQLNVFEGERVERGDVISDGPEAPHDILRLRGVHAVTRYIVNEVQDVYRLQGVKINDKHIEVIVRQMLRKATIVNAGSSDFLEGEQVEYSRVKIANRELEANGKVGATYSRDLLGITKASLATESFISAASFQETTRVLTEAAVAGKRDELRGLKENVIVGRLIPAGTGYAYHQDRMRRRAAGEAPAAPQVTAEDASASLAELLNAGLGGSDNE
Chain of E. coli RNA polymerase (P0A8V2 whole entry): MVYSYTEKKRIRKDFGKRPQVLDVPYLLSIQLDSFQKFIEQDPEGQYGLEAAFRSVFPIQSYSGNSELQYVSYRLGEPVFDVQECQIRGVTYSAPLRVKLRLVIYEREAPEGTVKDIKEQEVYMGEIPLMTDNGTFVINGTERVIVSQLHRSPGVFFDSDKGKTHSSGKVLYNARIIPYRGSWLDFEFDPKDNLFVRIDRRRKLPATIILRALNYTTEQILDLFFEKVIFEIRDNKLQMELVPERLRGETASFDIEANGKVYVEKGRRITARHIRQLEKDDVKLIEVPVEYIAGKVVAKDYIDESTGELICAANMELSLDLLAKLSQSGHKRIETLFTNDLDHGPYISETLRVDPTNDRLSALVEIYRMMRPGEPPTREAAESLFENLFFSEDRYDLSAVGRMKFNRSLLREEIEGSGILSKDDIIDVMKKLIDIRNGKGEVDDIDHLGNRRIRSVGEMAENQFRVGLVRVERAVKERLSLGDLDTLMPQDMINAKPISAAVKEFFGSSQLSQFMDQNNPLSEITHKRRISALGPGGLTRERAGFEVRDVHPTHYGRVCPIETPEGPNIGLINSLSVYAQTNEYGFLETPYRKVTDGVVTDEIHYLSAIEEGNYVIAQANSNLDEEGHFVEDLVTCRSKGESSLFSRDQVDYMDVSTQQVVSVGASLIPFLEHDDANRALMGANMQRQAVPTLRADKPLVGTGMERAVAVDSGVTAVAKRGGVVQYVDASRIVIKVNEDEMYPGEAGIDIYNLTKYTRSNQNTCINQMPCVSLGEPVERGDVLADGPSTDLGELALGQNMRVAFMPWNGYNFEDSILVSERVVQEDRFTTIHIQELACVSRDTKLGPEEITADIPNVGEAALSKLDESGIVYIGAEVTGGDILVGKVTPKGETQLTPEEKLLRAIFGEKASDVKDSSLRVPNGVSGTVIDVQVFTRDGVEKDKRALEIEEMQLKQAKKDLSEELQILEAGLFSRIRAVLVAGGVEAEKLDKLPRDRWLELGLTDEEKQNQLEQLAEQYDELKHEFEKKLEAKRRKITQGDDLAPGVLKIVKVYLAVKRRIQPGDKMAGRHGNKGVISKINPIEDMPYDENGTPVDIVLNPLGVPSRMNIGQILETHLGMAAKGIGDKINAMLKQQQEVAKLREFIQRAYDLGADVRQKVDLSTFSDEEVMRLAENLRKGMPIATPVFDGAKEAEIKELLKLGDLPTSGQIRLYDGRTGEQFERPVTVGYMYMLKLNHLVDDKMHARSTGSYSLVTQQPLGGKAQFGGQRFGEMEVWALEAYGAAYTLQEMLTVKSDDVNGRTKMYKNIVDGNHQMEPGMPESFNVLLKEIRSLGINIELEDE
Chain of E. coli RNA polymerase (P0A7Z4 whole entry, further chain): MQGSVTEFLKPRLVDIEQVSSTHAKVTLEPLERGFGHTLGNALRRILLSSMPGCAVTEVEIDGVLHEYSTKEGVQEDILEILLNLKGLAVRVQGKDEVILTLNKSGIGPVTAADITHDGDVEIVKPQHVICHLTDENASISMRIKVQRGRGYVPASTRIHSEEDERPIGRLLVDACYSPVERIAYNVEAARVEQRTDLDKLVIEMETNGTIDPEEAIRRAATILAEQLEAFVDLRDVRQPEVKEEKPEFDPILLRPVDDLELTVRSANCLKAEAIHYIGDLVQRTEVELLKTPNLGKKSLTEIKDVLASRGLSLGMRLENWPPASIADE
Chain of E. coli RNA polymerase (P00579 whole entry, further chain): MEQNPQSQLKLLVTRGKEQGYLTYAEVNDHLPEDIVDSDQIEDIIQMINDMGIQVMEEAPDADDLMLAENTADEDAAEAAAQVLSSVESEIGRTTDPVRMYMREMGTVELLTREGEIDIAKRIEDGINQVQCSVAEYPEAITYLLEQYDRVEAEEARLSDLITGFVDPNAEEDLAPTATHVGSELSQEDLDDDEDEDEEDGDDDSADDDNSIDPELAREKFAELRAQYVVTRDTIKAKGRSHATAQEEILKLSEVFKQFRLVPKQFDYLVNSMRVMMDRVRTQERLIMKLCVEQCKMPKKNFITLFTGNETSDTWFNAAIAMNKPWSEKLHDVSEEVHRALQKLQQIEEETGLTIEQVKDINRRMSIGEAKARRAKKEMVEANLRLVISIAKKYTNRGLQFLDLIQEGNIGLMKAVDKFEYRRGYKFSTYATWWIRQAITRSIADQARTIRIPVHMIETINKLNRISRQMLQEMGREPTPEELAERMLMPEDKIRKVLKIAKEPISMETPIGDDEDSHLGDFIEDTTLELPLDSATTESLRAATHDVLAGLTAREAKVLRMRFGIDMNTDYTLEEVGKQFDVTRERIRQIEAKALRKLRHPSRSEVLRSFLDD
Chain of E. coli RNA polymerase (P0A800 whole entry, further chain): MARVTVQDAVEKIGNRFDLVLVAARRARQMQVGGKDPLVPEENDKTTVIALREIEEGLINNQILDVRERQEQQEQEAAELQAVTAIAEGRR

B. cepacia ATCC 25416 [14] = system: B. cepacia ATCC 25416; remark: listed apart in the source
[15] = system: Burkholderia multivorans ATCC 17616
B. mallei Old ISU [16] = system: B. mallei Old ISU; remark: listed apart in the source
B. mallei NVSL 86-567-2 [17] = system: B. mallei NVSL 86-567-2; remark: listed apart in the source
B. pseudomallei = type: cell-based, Burkholderia pseudomallei
[18] = system: Enterohemorrhagic Escherichia coli O157:H7 TUV-93-0; details: E. coli; cited from earlier work
[19] = system: Salmonella enterica serovar newport; details: cited from earlier work

CC[C@H](C)[C@@H]1NC(=O)[C@H](CO)NC(=O)CNC(=O)[C@H](CC(=O)O)NC(=O)CNC(=O)CNC(=O)CC[C@@H](C(=O)N[C@@H](Cc2ccc(O)cc2)C(=O)N[C@@H](Cc2ccccc2)C(=O)N[C@@H](CC(N)=O)C(=O)N[C@@H](CCCNC(=N)N)C(=O)N2CCC[C@H]2C(=O)N[C@@H](CCSC)C(=O)N[C@@H](Cc2c[nH]cn2)C(=O)N[C@H](C(=O)N[C@@H](Cc2c[nH]cn2)C(=O)N[C@@H](CC(=O)O)C(=O)N[C@@H](Cc2c[nH]c3ccccc23)C(=O)N[C@@H](CCC(N)=O)C(=O)N[C@H](C(=O)N[C@@H](CCSC)C(=O)N[C@@H](CC(=O)O)C(=O)N[C@@H](CO)C(=O)NCC(=O)N[C@@H](Cc2ccc(O)cc2)C(=O)N[C@@H](Cc2ccc(O)cc2)C(=O)NCC(=O)O)[C@@H](C)CC)[C@@H](C)CC)NC(=O)[C@H](C)NC1=O [ubonodin] (GGDGSIAEYFNRPMHIHDWQIMDSGYYG-OH; lactam N-8; C-terminus assumed)
thermal degradation by LC-MS [1]: fragments into a variety of different structures; also recorded: major species in this sample is still intact ubonodin
MIC in M63 agar [2]: >500 µM
MIC via liquid growth assay [3]: 31 µM (≈ 99.2 µg/mL)
MIC via spot-on-lawn assay (B. cepacia ATCC 25416 [4]): 40 µM (≈ 128 µg/mL)
MIC via liquid growth assay (B. mallei Old ISU [5]): >31 µM
MIC via spot-on-lawn assay (B. mallei NVSL 86-567-2 [6]): 40 µM (≈ 128 µg/mL)
MIC via spot-on-lawn assay [7]: 20 µM (≈ 64 µg/mL)
antimicrobial activity (in words) [8]: no activity
MIC in M63 agar ([8]; ATCC 10248): >500 µM
antimicrobial activity (in words) [9]: unable to kill
MIC in M63 agar ([9]; O157:H7): >500 µM
MIC in M63 agar [10]: >500 µM
MIC in M63 agar [11]: >500 µM
antimicrobial activity (in words) [12]: unable to kill
MIC in M63 agar ([12]; serovar newport): >500 µM
MIC in M63 agar [13]: 500 µM (≈ 1600 µg/mL)
activity against B. multivorans after heating (Burkholderia multivorans): maintains its activity; also recorded: loses activity
potency in abortive transcription assays relative to MccJ25 (E. coli RNA polymerase): somewhat lower than that of MccJ25
inhibition of E. coli RNA polymerase (abortive transcription initiation) (E. coli RNA polymerase; 0, 1, 10 or 100 μM peptide): inhibits transcription initiation; also recorded: able to inhibit E. coli RNAP; also recorded: inhibits E. coli RNA polymerase
MIC via liquid growth assay (B. cepacia ATCC 25416 [14]): 4 µM (≈ 12.8 µg/mL)
MIC in M63 agar [15]: 8 µM (≈ 25.6 µg/mL)
MIC in M63 agar ([15]; ATCC 17616): 7.8 µM (≈ 25 µg/mL)
MIC via spot-on-lawn assay (B. mallei Old ISU [16]): 40 µM (≈ 128 µg/mL)
MIC via liquid growth assay (B. mallei NVSL 86-567-2 [17]): >31 µM
antimicrobial activity (in words) (B. pseudomallei): no activity

H17A (GGDGSIAEYFNRPMHIADWQIMDSGYYG; listed as Burkholderia ubonensis)
antimicrobial activity of purified ubonodin variants relative to wild-type [15]: near wild-type activity

citrocin
susceptibility of strain to peptide [18]: susceptible
susceptibility of strain to peptide [19]: susceptible

microcin J25 (GGAGHVPEYFVGIGTPISFYG) [MccJ25]
susceptibility of strain to peptide [18]: susceptible
susceptibility of strain to peptide [19]: susceptible
